Measured values reported in patent US20060142251A1, “Anti-microbial agents derived from methionine sulfoximine analogues” (priority 2002, published 2006).
Values joined by “and” are separate entries in the source; they are usually repeats but may differ in a detail not shown here. Equal values may be shown once. Read-outs that look alike come from different tables or passages of the source.

Key:
[1] = Text: Exemplary, non-limiting GS inhibitors of the present invention and their relevant properties are summarized below: [drawing 1]
M. tuberculosis Erdman = assay: M. tuberculosis growth in broth culture; format: cell-based; details: for inhibition of M. tuberculosis growth in broth culture in comparison with MSO / inhibition of M. tuberculosis in broth culture relative to MSO at each of the three concentrations: 10, 100, 1000 μM; for inhibition of M. tuberculosis growth in broth culture in comparison with MSO: 6 weeks (FIG. 4); for inhibition of M. tuberculosis in broth culture relative to MSO at each of the three concentrations / inhibition of M. tuberculosis growth in broth culture: Example 7; for inhibition of M. tuberculosis growth in broth culture: 10, 100 or 1000 μM, 6 weeks
[2] = test system: M. tuberculosis Erdman in human macrophages (THP-1 cells); details: 20, 200, 2000 μM, CFU to day 5 (FIG. 5)
[3] = cited from earlier work; for metabolism: do not form the toxic products formed in vivo from MSO
[4] = α-Et-MSO: convulsions in a minority of mice vs MSO dose giving 100% of mice; cited from earlier work
[5] = in vivo; cited from earlier work
[6] = doses that fully inhibit glutathione synthesis; cited from earlier work
[7] = test system: M. tuberculosis Erdman strain; format: in vivo; details: for reduction of CFU in lung and spleen below the level obtained with MSO: from day 14
Remark: listed apart in the source

Compound	Estimated Dose of L Isomer that Induces Convulsions in Mice (Relative to MSO) ([1]; Table 1)	Estimated Dose of L Isomer that Induces Convulsions in Mice (Relative to MSO) ([1]; Table 3)	inhibition of M. tuberculosis growth in broth culture in comparison with MSO (M. tuberculosis Erdman)	inhibition of M. tuberculosis in broth culture relative to MSO at each of the three concentrations (M. tuberculosis Erdman)	inhibition of M. tuberculosis growth in broth culture (M. tuberculosis Erdman)	inhibition of M. tuberculosis growth in human macrophages [2]	metabolism [3]	Metabolized In Vivo [3]	dose that causes convulsions in mice, higher than MSO [4] [fold]	entry into the brain compared with MSO [5]	also measured
CCC(N)(CCS(C)(=N)=O)C(=O)O (racemic) [α-Et-MSO, α-ethyl-DL-methionine-SR-sulfoximine]	>16	≧16	as inhibitory to M. tuberculosis growth as MSO	as inhibitory or slightly more inhibitory than MSO	inhibited M. tuberculosis	readily inhibited M. tuberculosis growth in human macrophages	resistant to metabolism	−	16	do not enter the brain as readily as MSO	
CC(N)(CCS(C)(=N)=O)C(=O)O (racemic) [α-Me-MSO, α-methyl-DL-methionine-SR-sulfoximine]	8	8	as inhibitory to M. tuberculosis growth as MSO	slightly less inhibitory than MSO	inhibited M. tuberculosis	readily inhibited M. tuberculosis growth in human macrophages	resistant to metabolism	−	~8	do not enter the brain as readily as MSO	
CCCCS(=N)(=O)CCC(N)C(=O)O [BSO, D, L-Buthionine-SR-Sulfoximine]					did not						animals killed [6]: 100%
NNC(=O)c1ccncc1 [INH, isoniazid]											reduction of CFU in lung and spleen below the level obtained with MSO ([7]; INH 1 mg kg^−1 day^−1 oral): ~1.5 logs; reduction of CFU in lung and spleen below the level obtained with MSO ([7]; INH 4 mg kg^−1 day^−1 oral): ~2.5 logs; protection from weight loss ([7]; […], MSO 1.5, INH 1 or 4 mg kg^−1 day^−1): protected animals from weight loss
CS(=N)(=O)CC[C@H](N)C(=O)O (stereo partly drawn) [MSO, L-methionine-SR-sulfoximine]	1	1			inhibited M. tuberculosis						fewer CFU of M. tuberculosis in lung and spleen than control animals ([7]; in vivo): approximately 1 log unit; protection from weight loss ([7]; in vivo): protected animals from weight loss; reduction of CFU of M. tuberculosis in lungs and spleen compared with control animals ([7]; in vivo): ~0.7 logs; reduction of bacterial counts in lung and spleen ([7]; in vivo): effective at reducing bacterial counts; survival of the 10 week observation period ([7]; in vivo): 100% and 80% and 60%; weight gain versus untreated controls ([7]; in vivo): gained significantly more weight than untreated controls; weight loss versus untreated controls ([7]; in vivo): protected from weight loss; reduction of CFU in lungs and spleen compared with untreated controls ([7]; in vivo, ip): 2.5 logs; MTD in the presence of ascorbate relative to absence of ascorbate (guinea pig, in vivo): 4 fold; maximum tolerated dose for guinea pigs infected with M. tuberculosis (guinea pig, in vivo): 1.5 mg kg^−1 day^−; tolerability (guinea pig, in vivo): well-tolerated
O=C1O[C@H]([C@@H](O)CO)C(O)=C1O [ascorbate]											total dose well tolerated by guinea pigs (i.p., 9 mmoles kg^−1 day^−1 not well tolerated): 3 mmol/kg/day
